The source made the active and inactive calls. The calls are words filed in the database; no cut-off is given here.
How the values were obtained:
Staphylococcus aureus [1] = test: Antibacterial activity against Staphylococcus aureus ATCC 29213 measured after 18 hrs by CLSI based broth microdilution method; assay type: functional
Staphylococcus aureus [2] = test: Antibacterial activity against methicillin-resistant Staphylococcus aureus clinical isolate 13 measured after 18 hrs by CLSI based broth microdilution method; assay type: functional
Staphylococcus aureus [3] = test: Antibacterial activity against methicillin-resistant Staphylococcus aureus clinical isolate 11 measured after 18 hrs by CLSI based broth microdilution method; assay type: functional
[4] = Hemolytic activity in sheep erythrocyte assessed as hemolysis incubated for 1 hr by absorbance based analysis; assay type: toxicity, cell-based, Ovis aries; conditions: sheep erythrocytes
Cell membrane [5] = test: Disruption of cell membrane in methicillin-resistant Staphylococcus aureus clinical isolate 16 assessed as appearance of broken surface at 16 ug/ml measured after 4 hrs by SEM analysis; assay type: cell membranes; conditions: dose 16.0 µg/ml
Cell membrane [6] = test: Disruption of cell membrane in methicillin-resistant Staphylococcus aureus clinical isolate 16 assessed as increase in red fluorescence at 8 times MIC measured after 4 hrs by DAPI and PI staining based laser confocal microscopy based analysis; assay type: cell membranes
Cell membrane [7] = test: Induction of cell membrane disruption in methicillin-resistant Staphylococcus aureus clinical isolate 16 assessed as intact cells (Q3 region) at 64 ug/ml measured after 2 hrs by SYTO-9 and PI staining based flow cytometry analysis (reference value: 96.0%); assay type: cell membranes; conditions: dose 64.0 µg/ml
Cell membrane [8] = test: Induction of cell membrane disruption in methicillin-resistant Staphylococcus aureus clinical isolate 16 assessed as dead cells (Q1 region) at 4 ug/ml measured after 2 hrs by SYTO-9 and PI staining based flow cytometry analysis (reference value: 0%); assay type: cell membranes; conditions: dose 4.0 µg/ml
Cell membrane [9] = test: Induction of cell membrane disruption in methicillin-resistant Staphylococcus aureus clinical isolate 16 assessed as dead cells (Q1 region) at 8 ug/ml measured after 2 hrs by SYTO-9 and PI staining based flow cytometry analysis (reference value: 0%); assay type: cell membranes; conditions: dose 8.0 µg/ml
Cell membrane [10] = test: Induction of cell membrane disruption in methicillin-resistant Staphylococcus aureus clinical isolate 16 assessed as dead cells (Q1 region) at 64 ug/ml measured after 2 hrs by SYTO-9 and PI staining based flow cytometry analysis (reference value: 0%); assay type: cell membranes; conditions: dose 64.0 µg/ml
Staphylococcus aureus [11] = test: Antibacterial activity against methicillin-resistant Staphylococcus aureus clinical isolate 16 measured after 18 hrs in presence of cardiolipin by checkerboard broth dilution method; assay type: functional, organism-based
Cell membrane [12] = test: Disruption of cell membrane in methicillin-resistant Staphylococcus aureus clinical isolate 16 assessed as increase in protein leakage incubated for 4 hrs by microspectrophotometric analysis; assay type: cell membranes; conditions: dose <= 8.0 µg/ml
[13] = Toxicity in female KM mouse assessed as animal death at 80 mg/kg, sc measured after 24 hrs; assay type: organism-based; conditions: in vivo
[14] = Toxicity in female KM mouse assessed as adverse reaction in skin at 20 mg/kg, sc measured after 24 hrs; assay type: organism-based; conditions: in vivo
[15] = Toxicity in female KM mouse assessed as effect on white blood cell at upto 20 mg/kg, sc measured after 24 hrs; assay type: organism-based; conditions: in vivo
[16] = Toxicity in female KM mouse assessed as effect on heart at 20 mg/kg, sc measured after 24 hrs by H and E staining based analysis; assay type: organism-based; conditions: in vivo
[17] = Toxicity in female KM mouse assessed as effect on liver at 20 mg/kg, sc measured after 24 hrs by H and E staining based analysis; assay type: organism-based; conditions: in vivo
[18] = Toxicity in female KM mouse assessed as effect on histopathological abnormalities in spleen at 20 mg/kg, sc measured after 24 hrs by H and E staining based analysis; assay type: organism-based; conditions: in vivo
Staphylococcus aureus [19] = test: Antibacterial activity against methicillin-resistant Staphylococcus aureus clinical isolate 16 infected in female KM mouse skin abscess model assessed as smooth skin on back at 10 mg/kg, sc measured after 24 hrs; assay type: functional, organism-based
Staphylococcus aureus [20] = test: Antibacterial activity against methicillin-resistant Staphylococcus aureus clinical isolate 16 infected in female KM mouse skin abscess model assessed as reduction in inflammatory cells at 5 to 10 mg/kg, sc measured after 24 hrs by H and E staining based analysis; assay type: functional, organism-based; conditions: dose 5-10 mg/kg
Staphylococcus aureus [21] = test: Antibacterial activity against methicillin-resistant Staphylococcus aureus clinical isolate 16 infected in female KM mouse skin abscess model assessed as reduction in infiltration of inflammatory cells in subcutaneous tissue at 10 mg/kg, sc measured after 24 hrs by H and E staining based analysis; assay type: functional, organism-based
Staphylococcus aureus [22] = test: Antibacterial activity against methicillin-resistant Staphylococcus aureus clinical isolate 16 infected in female KM mouse skin abscess model assessed as reduction in bacterial load at 10 mg/kg, sc measured after 24 hrs relative to control; assay type: functional; design: scale not given: the % may be the effect or the level left
Staphylococcus aureus [23] = test: Antibacterial activity against methicillin-resistant Staphylococcus aureus clinical isolate 16 infected in female KM mouse skin abscess model assessed as reduction in IL-6 level at 5 to 10 mg/kg, sc measured after 24 hrs by ELISA method; assay type: functional, organism-based; conditions: dose 5-10 mg/kg
[24] = Toxicity in female KM mouse skin abscess model infected with methicillin-resistant Staphylococcus aureus clinical isolate 16 assessed as effect on heart at 5 to 10 mg/kg, sc measured after 24 hrs by H and E staining based analysis; assay type: organism-based; conditions: in vivo, dose 5-10 mg/kg
[25] = Toxicity in female KM mouse skin abscess model infected with methicillin-resistant Staphylococcus aureus clinical isolate 16 assessed as histological abnormalities in liver at 5 to 10 mg/kg, sc measured after 24 hrs by H and E staining based analysis; assay type: organism-based; conditions: in vivo, dose 5-10 mg/kg
[26] = Toxicity in female KM mouse skin abscess model infected with methicillin-resistant Staphylococcus aureus clinical isolate 16 assessed as histological abnormalities in kidney at 5 to 10 mg/kg, sc measured after 24 hrs by H and E staining based analysis; assay type: organism-based; conditions: in vivo, dose 5-10 mg/kg

For CCCCCCNC(=O)C[N+](C)(C)CCCCCOc1ccc2ccc(=O)oc2c1CC=C(C)C.[Br-], the MIC (Staphylococcus aureus [1]) was 1 mg/L, the MIC (Staphylococcus aureus [2]) was 2 mg/L and the MIC (Staphylococcus aureus [3]) was 1 mg/L. The HC50 at 1 h [4] was 1040 µg/mL, the Activity (Cell membrane [5]) was “Active” and the Activity (Cell membrane [6]) was “Active”. The Activity (Cell membrane [7]) was 0%, the Activity (Cell membrane [8]) was 0.12% and the Activity (Cell membrane [9]) was 0.34%. The Activity (Cell membrane [10]) was 96.2%, the Activity (Staphylococcus aureus [11]) was “Active” and the Activity (Cell membrane [12]) was “Dose-Dependent Effect”. For the same compound, the Activity [13] was “Non-Toxic”, the Activity [14] was “Non-Toxic” and the Activity [15] was “Non-Toxic”. For the same compound, the Activity [16] was “Non-Toxic”, the Activity [17] was “Non-Toxic” and the Activity [18] was “Non-Toxic”. The Activity (Staphylococcus aureus [19]) was “Active”, the Activity (Staphylococcus aureus [20]) was “Active” and the Activity (Staphylococcus aureus [21]) was “Active”. The Activity (Staphylococcus aureus [22]) was 99.998%, the Activity (Staphylococcus aureus [23]) was “Active” and the Activity [24] was “Non-Toxic”. The Activity [25] was “Non-Toxic” and the Activity [26] was “Non-Toxic”.
